Laboratory results as given in US9388216B2, “Methods of treating reproductive cancer” (Medical Research Council, priority 2006, dated 2016).

Key:
[1] = system: PARP cleavage in HEK293/rGnRHR cells; experiment: Time-course of PARP cleavage (apoptosis), western blot; type: cell-based, rat; details: 100 nM
Description: (§1) We investigated whether the growth suppression caused by GnRH on HEK293 cells expressing the rat receptor was due to an inhibition of cell proliferation or an induction of apoptosis. On the one hand, we used radioactive thymidine incorporation into the genome to track cell proliferation over a period of 96 h. […] On the other hand, we measured apoptosis by monitoring cleavage of poly[ADP-ribose]polymerase (PARP), a substrate of caspase 3. […] The increase of cleaved PARP in the cytoplasm was proportional to the increase of cleaved PARP in the nucleus (data not shown), so we routinely only examined clarified whole-cell lysates for technical ease.

[2] = system: Gi coupling of GnRHR (FSK-stimulated cAMP); experiment: Inhibition of FSK-stimulated cAMP in HEK293/rGnRHR cells; type: cell-based, rat; details: unpublished results
Text: However, we agree with the general view that PLC, representing the classical Gq-initiated pituitary signalling pathway, is not a relevant component of the apoptotic cascade.

HEK293/rGnRHR cells [3] = experiment: Thymidine incorporation assay; type: cell-based, rat; details: 100 nM, continuous treatment, over 96 h
Description: Medium of cells growing on 24-well PLL-coated plates was removed and 0.5 μCi [3H]thymidine (Amersham) in complete fresh medium was added to each well. After an overnight incubation, the medium was removed, the cells washed three times with 1 ml PBS and left for […] at room temperature in 0.5 ml 0.1 N NaOH. The extract was then transferred to a scintillation vial, 2 ml of Optiphase “HiSafe 3” cocktail (PerkinElmer) added and 3H counts measured in a liquid scintillation 1450 Wallac MicroBeta® TriLux counter.
as §1

HEK293/rGnRHR cells [4] = experiment: Cell growth inhibition (viable cell number after 5 days of continuous treatment) in HEK293/rGnRHR cells; type: cell-based, rat; details: rat receptor
Description: (§2) For the first method, HEK293 cells expressing various GnRH receptor constructs were seeded into 12-well PLL-coated plates at 50,000 cells (in 1 ml)/well and cultured with continuous GnRH exposure for five days, adding fresh peptide every day. Trypan Blue-excluding cells were then counted with a haemocytometer. For the second method, cells were seeded into 96-well plates at 5,000 cells (in 100 μl)/well and treated exactly as described before. 10 μl WST-1 reagent (Roche Diagnostics Ltd.; Lewes, East Sussex, UK) was added directly to each well and, after 3 h at 37° C., absorbance was read at 450 nm (with a reference at 690 nm) against a background control as blank using a microplate ELISA reader.
(§3) Bar graphs and curves were obtained using Prism 3.0 (GraphPad Software, Inc.: San Diego, Calif., USA). IC50 and EC50 values were determined by non-linear regression analysis. Curves were best-fitted to a one-site model. […] Values were normalised as specified in the figure legends.
(§4) Antiproliferation/apoptosis was estimated by determining cell number after five days of continuous exposure to the peptides. In parallel, this response was compared to the classical Gq coupled-PLCβ activation induced by GnRH peptides, as measured by the very well characterized inositol phosphates accumulation protocol. Both outputs were determined in two HEK293 cell lines; one expressing the rat receptor and the other expressing the human receptor. The human cell line was included in the study because this species may be clinically more relevant and the very low receptor expression may better reflect the in vivo tumoural state. In fact, due to poor binding, the precise affinity of the analogues on this cell line could not be determined.

HEK293/hGnRHR cells = experiment: Cell growth inhibition (viable cell number after 5 days of continuous treatment) in HEK293/hGnRHR cells; type: cell-based, human; details: human receptor
Description: as §2, §3, §4

rat GnRH receptor = molecular target: T1, rat GnRH receptor (Rattus norvegicus, UniProt P30969); experiment: Accumulation of total inositol phosphates (PLCβ activation) in HEK293/rGnRHR cells; type: cell-based
T1 construct: expressed in transfected cells
T1 sequence (P30969 1-327): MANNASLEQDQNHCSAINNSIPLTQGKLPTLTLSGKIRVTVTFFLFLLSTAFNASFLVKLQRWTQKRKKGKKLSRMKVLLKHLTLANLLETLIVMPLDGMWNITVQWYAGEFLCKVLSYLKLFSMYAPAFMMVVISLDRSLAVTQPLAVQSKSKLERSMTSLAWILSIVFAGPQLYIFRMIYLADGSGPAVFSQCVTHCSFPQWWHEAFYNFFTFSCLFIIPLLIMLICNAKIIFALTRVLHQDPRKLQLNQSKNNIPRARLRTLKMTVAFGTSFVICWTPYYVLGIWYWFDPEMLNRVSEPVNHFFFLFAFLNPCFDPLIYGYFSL
Description: HEK293 cells stably expressing the GnRH receptor growing on 12-well PLL-coated plates were pre-labelled with 1 μCi/ml myo-[H3]inositol (Amersham) in inositol-free DMEM (Sigma) for 48 h. On the day of the experiment, cells were washed with assay buffer (140 mM NaCl, 20 mM HEPES, 8 mM glucose, 4 mM KCl, 1 mM MgCl2, 1 mM CaCl2, 1 mg/ml BSA), pre-incubated with 10 mM LiCl (in assay buffer) for 30 min, and stimulated with different concentrations of the peptides (in the same buffer) for 1 h at 37° C. Incubations were terminated by removing the culture medium and lysing the cells in ice cold 10 mM formic acid for 30 min. Inositol phosphates were extracted by chromatography with an anion exchange resin (AG® 1-X8, Bio-Rad) using 1 M ammonium formate and 0.1 M formic acid. Liquid scintillant was added to the final eluate and [3H]inositol phosphates were measured in the β-counter.
as §3

[5] = system: ERK1/2 phosphorylation in HEK293 cells expressing rat GnRHR or rat GnRHR/TRHR chimera; experiment: ERK activation profile, western blot with anti-phosphorylated ERK1/2; type: cell-based; details: 100 nM, rat GnRHR versus rat GnRHR/TRHR chimera
Text: We decided to investigate if this lack of rapid desensitisation holds true for other responses that may be more pertinent for the antiproliferative/apoptotic properties of GnRH.

[6] = system: HEK293 cells expressing human GnRHR with catfish GnRHR tail or rat GnRHR with TRHR tail; experiment: Cell growth after five days of GnRH I in HEK293 cells expressing tailed chimeric receptors; type: cell-based; details: five days of continuous treatment
Description: Trypan Blue-excluding cells were then counted with a haemocytometer. For the second method, cells were seeded into 96-well plates at 5,000 cells (in 100 μl)/well and treated exactly as described before. 10 μl WST-1 reagent (Roche Diagnostics Ltd.; Lewes, East Sussex, UK) was added directly to each well and, after 3 h at 37° C., absorbance was read at 450 nm (with a reference at 690 nm) against a background control as blank using a microplate ELISA reader. To the best of our knowledge, the ability to inhibit the growth of cells expressing its cognate receptor is a property only clearly described for GnRH, Since the type I GnRH receptor (GnRHR) is the only G protein-coupled receptor lacking an intracellular C-terminal tail, we hypothesized that the cell growth suppression ability of GnRH was conferred by this unique feature of the GnRHR. […] We were unable to detect growth suppression of wild-type HEK293 cells, which endogenously express adrenergic, LPA and endothelin receptors, treated with their corresponding agonists (data not shown). The expression of all receptors mentioned was confirmed by binding assays or western blotting (data not shown).

[7] = system: HEK293 cells over-expressing the catfish GnRHR or the TRHR; experiment: Cell growth in HEK293 cells over-expressing the catfish GnRHR or the TRHR; type: cell-based; details: data not shown
Description: as §2
To the best of our knowledge, the ability to inhibit the growth of cells expressing its cognate receptor is a property only clearly described for GnRH, Since the type I GnRH receptor (GnRHR) is the only G protein-coupled receptor lacking an intracellular C-terminal tail, we hypothesized that the cell growth suppression ability of GnRH was conferred by this unique feature of the GnRHR. […] We were unable to detect growth suppression of wild-type HEK293 cells, which endogenously express adrenergic, LPA and endothelin receptors, treated with their corresponding agonists (data not shown). The expression of all receptors mentioned was confirmed by binding assays or western blotting (data not shown).

Substance	time after first treatment at which PARP cleavage (apoptosis) is manifest [1]	inhibition of FSK-stimulated cAMP [2]	DNA replication (thymidine incorporation) compared to untreated cells (HEK293/rGnRHR cells [3])	fold more potent than GnRH I to induce cell death / inhibit cell growth (HEK293/rGnRHR cells [4]) [fold]	fold more potent than GnRH I to induce cell death / inhibit cell growth (HEK293/hGnRHR cells) [fold]	fold more potent to activate PLCβ than GnRH II (rat GnRH receptor) [fold]	duration of ERK activation [5]	effect of GnRH I on cell growth of cell lines expressing the chimeras [6]	inhibition of cell growth [7]
pGlu-His-Trp-Ser-His-Gly-Trp-Tyr-Pro-Gly.NH2 (EHWSHGWYPG; HELM PEPTIDE1{[Glp].H.W.S.H.G.W.Y.P.G.[am]}$$$$V2.0; SMILES NC(=O)CNC(=O)[C@@H]1CCCN1C(=O)[C@H](Cc1ccc(O)cc1)NC(=O)[C@H](Cc1c[nH]c2ccccc12)NC(=O)CNC(=O)[C@H](Cc1c[nH]cn1)NC(=O)[C@H](CO)NC(=O)[C@H](Cc1c[nH]c2ccccc12)NC(=O)[C@H](Cc1c[nH]cn1)NC(=O)[C@@H]1CCC(=O)N1) [GnRH II, human gonadotropin-releasing hormone II, purchased from Sigma-Aldrich]	24 h	did not detect	reduced DNA replication	13.0	6.7				
pGlu-His-Trp-Ser-Tyr-Gly-Leu-Arg-Pro-Gly.NH2 [GnRH I]	at least 48 h	did not detect	reduced DNA replication			4.7	more sustained in the cells expressing the receptors lacking the C-terminal tail	Addition of the C-terminal tails inhibited the effect	did not inhibit the growth
